Source: patent publication US7138361B2, “Herbicidal heterocycles” (E. I. du Pont de Nemours and Company, priority 2000, dated 2006)

What was measured:
Type in all cases: in vivo
[1] = system: kochia (Kochia scoparia); experiment: Test C preemergence
Description: (§1) Seeds of plant species selected from bermudagrass (Cynodon dactylon), Surinam grass (Brachiaria decumbens), cocklebur (Xanthium strumarium), corn (Zea mays), crabgrass (Digitaria sanguinalis), woolly cupgrass (Eriochloa villosa), giant foxtail (Setaria faberii), goosegrass (Eleusine indica), johnsongrass (Sorghum halepense), kochia (Kochia scoparia), lambsquarters (Chenopodium album), morningglory (Ipomoea hederacea), yellow nutsedge (Cyperus esculentus), pigweed (Amaranthus retroflexus), common ragweed (Ambrosia elatior), soybean (Glycine max) and velvetleaf (Abutilon theophrasti) were planted and treated preemergence with test chemicals formulated in a non-phytotoxic solvent mixture which included a surfactant.
(§2) At the same time, plants selected from these crop and weed species and also winter barley (Hordeum vulgare), blackgrass (Alopecurus myosuroides), canary grass (Phalaris minor), chickweed (Stellaria media), downy brome (Bromus tectorum), green foxtail (Setaria viridis), Italian ryegrass (Lolium multiflorum), wheat (Triticum aestivum), wild oat (Avena fatua) and windgrass (Apera spica-venti) were treated with postemergence applications of some of the test chemicals formulated in the same manner. Plants ranged in height from 2 to 18 cm (1- to 4-leaf stage) for postemergence treatments. Plant species in the flooded paddy test consisted of rice (Oryza saliva), smallflower flatsedge (Cyperus difformis), duck salad (Heteranthera limosa) and barnyardgrass (Echinochloa crus-galli) grown to the 2-leaf stage for testing. Treated plants and controls were maintained in a greenhouse for 12 to 14 days, after which time all species were compared to controls and visually evaluated. Plant response ratings, summarized in Table C, are based on a scale of 0 to 100 where 0 is no effect and 100 is complete control. A dash (-) response means no test result.

[2] = system: bermudagrass (Cynodon dactylon); experiment: Test C preemergence
Description: as §1, §2

[3] = system: lambsquarters (Chenopodium album); experiment: Test C preemergence
Description: as §1, §2

[4] = system: cocklebur (Xanthium strumarium); experiment: Test C preemergence
Description: as §1, §2

[5] = system: Nightshade; experiment: Test C preemergence
Description: as §1, §2

[6] = system: goosegrass (Eleusine indica); experiment: Test C preemergence
Description: as §1, §2

[7] = system: yellow nutsedge (Cyperus esculentus); experiment: Test C preemergence
Description: as §1, §2

[8] = system: pigweed (Amaranthus retroflexus); experiment: Test C preemergence
Description: as §1, §2

[9] = system: crabgrass (Digitaria sanguinalis); experiment: Test C preemergence
Description: as §1, §2

[10] = system: Surinam grass (Brachiaria decumbens); experiment: Test C preemergence
Description: as §1, §2

[11] = system: johnsongrass (Sorghum halepense); experiment: Test C preemergence
Description: as §1, §2

[12] = system: woolly cupgrass (Eriochloa villosa); experiment: Test C preemergence
Description: as §1, §2

[13] = system: Sunflower; experiment: Test C preemergence; details: Rate 62 g/ha; scale 0 to 100, 0 no effect, 100 complete control
Description: as §1, §2

[14] = system: morningglory (Ipomoea hederacea); experiment: Test C preemergence
Description: as §1, §2

[15] = system: velvetleaf (Abutilon theophrasti); experiment: Test C preemergence
Description: as §1, §2

[16] = system: corn (Zea mays); experiment: Test C preemergence
Description: as §1, §2

[17] = system: giant foxtail (Setaria faberii); experiment: Test C preemergence
Description: as §1, §2

[18] = system: soybean (Glycine max); experiment: Test C preemergence
Description: as §1, §2

[19] = system: Sunflower; experiment: Test C preemergence; details: Rate 250 g/ha, visual evaluation after 12 to 14 days
[20] = system: barnyardgrass (Echinochloa crus-galli); experiment: Test C flooded paddy test; details: for Barnyardgrass plant response rating: Flooded Paddy, scale 0 to 100, 0 no effect, 100 complete control; for Plant response rating, Barnyardgrass: flooded paddy test, scale 0 to 100 (0 no effect, 100 complete control)
Method in brief: (§3)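 2-leaf-stage plants, flooded paddy; treated; greenhouse 12–14 days; compared with controls by eye; rated 0–100 (0 none, 100 complete control).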

[21] = system: rice (Oryza saliva); experiment: Test C flooded paddy test; details: for Rice plant response rating: Flooded Paddy, scale 0 to 100, 0 no effect, 100 complete control; for Plant response rating, Rice: flooded paddy test, scale 0 to 100 (0 no effect, 100 complete control)
Method in brief: as §3

[22] = Rate 62 g/ha, scale 0 to 100, 0 no effect, 100 complete control
[23] = preemergence, Rate 31 g/ha, scale 0 to 100
[24] = preemergence, Rate 250 g/ha, visual evaluation after 12 to 14 days
[25] = preemergence, Rate 125 g/ha, scale 0 to 100, 0 no effect, 100 complete control

CC(C)c1ccn(C2OCN(c3cccc(C(F)(F)F)c3)C2=O)n1 (centres unmarked) [Compound 27]
90: Plant response rating, Bermudagrass [2, 22] | Plant response rating, Goosegrass [6, 22] | Plant response rating, Crabgrass [9, 23]
50: Plant response rating, Surinam grass [10, 22] | Plant response rating, Surinam grass [10, 25] | Plant response rating (0 to 100), Johnsongrass [11, 24] | Plant response rating, Johnsongrass [11, 25] | Plant response rating, Cupgrass, Woolly [12, 22] | Plant response rating, Cupgrass, Woolly [12, 23] | Plant response rating (0 to 100), Soybean [18, 24]
40: Plant response rating, Goosegrass [6, 23] | Plant response rating, Soybean [18, 25] | Rice plant response rating ([21]; Rate 250 g/ha) | Plant response rating, Rice ([21]; Rate 125 g/ha)
100: Plant response rating, Kochia [1, 22] | Plant response rating (0 to 100), Kochia [1, 24] | Plant response rating, Kochia [1, 25] | Plant response rating (0 to 100 where 0 is no effect and 100 is complete control), Bermudagrass [2, 24] | Plant response rating, Bermudagrass [2, 25] | Plant response rating, Lambsquarters [3, 22] | Plant response rating, Lambsquarters [3, 23] | Plant response rating (0 to 100), Lambsquarters [3, 24] | Plant response rating, Lambsquarters [3, 25] | Plant response rating (0 to 100), Goosegrass [6, 24] | Plant response rating, Goosegrass [6, 25] | Plant response rating, Pigweed [8, 23] | Plant response rating (0 to 100), Pigweed [8, 24] | Plant response rating, Pigweed [8, 25] | Plant response rating, Crabgrass [9, 22] | Plant response rating (0 to 100), Crabgrass [9, 24] | Plant response rating, Crabgrass [9, 25] | Plant response rating (0 to 100), Cupgrass, Woolly [12, 24] | Plant response rating, Foxtail, Giant [17, 25]
30: Plant response rating, Bermudagrass [2, 23] | Plant response rating, Nutsedge [7, 23] | Plant response rating (0 to 100), Morningglory [14, 24] | Plant response rating (0 to 100), Corn [16, 24] | Plant response rating, Soybean [18, 22]
80: Plant response rating (0 to 100), Nutsedge [7, 24] | Plant response rating (0 to 100), Surinam grass [10, 24] | Plant response rating, Cupgrass, Woolly [12, 25]
20: Plant response rating, Johnsongrass [11, 22] | Plant response rating, Sunflower [13] | Plant response rating, Morningglory [14, 22] | Plant response rating, Morningglory [14, 25] | Plant response rating, Corn [16, 22] | Plant response rating, Corn [16, 25] | Plant response rating (0 to 100), Sunflower [19] | Plant response rating, Barnyardgrass ([20]; Rate 62 g/ha)
60: Plant response rating, Nutsedge [7, 22] | Plant response rating, Nutsedge [7, 25] | Barnyardgrass plant response rating ([20]; Rate 250 g/ha) | Plant response rating, Barnyardgrass ([20]; Rate 125 g/ha)
70: Plant response rating, Foxtail, Giant [17, 22] | Barnyardgrass plant response rating ([20]; Rate 500 g/ha) | Rice plant response rating ([21]; Rate 500 g/ha)
0: Plant response rating, Kochia [1, 23] | Plant response rating, Cocklebur [4, 22] | Plant response rating, Cocklebur [4, 23] | Plant response rating (0 to 100), Cocklebur [4, 24] | Plant response rating, Cocklebur [4, 25] | Plant response rating, Nightshade ([5]; Rate 31 g/ha, scale 0 to 100) | Plant response rating, Nightshade [5, 22] | Plant response rating, Nightshade ([5]; Rate 125 g/ha, scale 0 to 100, 0 no effect, 100 complete control) | Plant response rating, Pigweed [8, 22] | Plant response rating, Surinam grass [10, 23] | Plant response rating, Johnsongrass [11, 23] | Plant response rating, Morningglory [14, 23] | Plant response rating, Velvetleaf [15, 22] | Plant response rating, Velvetleaf [15, 23] | Plant response rating (0 to 100), Velvetleaf [15, 24] | Plant response rating, Velvetleaf [15, 25] | Plant response rating, Corn [16, 23] | Plant response rating, Foxtail, Giant [17, 23] | Plant response rating (0 to 100), Foxtail, Giant [17, 24] | Plant response rating, Soybean [18, 23] | Plant response rating, Rice ([21]; Rate 62 g/ha)
